From ChEMBL document CHEMBL1201862, “PubChem BioAssay data set” (2004)
The source made the active and inactive calls.

Tests used:
[1] = biological target: T1, Short transient receptor potential channel 4 (Mus musculus, UniProt Q9QUQ5); assay: mouse TRPC4 channel inhibitors, dose response, cell-based, HEK293 TRPC4/mu-opioid, Fluo-4 calcium (AID 434942); assay type: functional;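 also: potency of inhibitors blocking the TRPC4 calcium response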
T1 sequence (Q9QUQ5 whole entry): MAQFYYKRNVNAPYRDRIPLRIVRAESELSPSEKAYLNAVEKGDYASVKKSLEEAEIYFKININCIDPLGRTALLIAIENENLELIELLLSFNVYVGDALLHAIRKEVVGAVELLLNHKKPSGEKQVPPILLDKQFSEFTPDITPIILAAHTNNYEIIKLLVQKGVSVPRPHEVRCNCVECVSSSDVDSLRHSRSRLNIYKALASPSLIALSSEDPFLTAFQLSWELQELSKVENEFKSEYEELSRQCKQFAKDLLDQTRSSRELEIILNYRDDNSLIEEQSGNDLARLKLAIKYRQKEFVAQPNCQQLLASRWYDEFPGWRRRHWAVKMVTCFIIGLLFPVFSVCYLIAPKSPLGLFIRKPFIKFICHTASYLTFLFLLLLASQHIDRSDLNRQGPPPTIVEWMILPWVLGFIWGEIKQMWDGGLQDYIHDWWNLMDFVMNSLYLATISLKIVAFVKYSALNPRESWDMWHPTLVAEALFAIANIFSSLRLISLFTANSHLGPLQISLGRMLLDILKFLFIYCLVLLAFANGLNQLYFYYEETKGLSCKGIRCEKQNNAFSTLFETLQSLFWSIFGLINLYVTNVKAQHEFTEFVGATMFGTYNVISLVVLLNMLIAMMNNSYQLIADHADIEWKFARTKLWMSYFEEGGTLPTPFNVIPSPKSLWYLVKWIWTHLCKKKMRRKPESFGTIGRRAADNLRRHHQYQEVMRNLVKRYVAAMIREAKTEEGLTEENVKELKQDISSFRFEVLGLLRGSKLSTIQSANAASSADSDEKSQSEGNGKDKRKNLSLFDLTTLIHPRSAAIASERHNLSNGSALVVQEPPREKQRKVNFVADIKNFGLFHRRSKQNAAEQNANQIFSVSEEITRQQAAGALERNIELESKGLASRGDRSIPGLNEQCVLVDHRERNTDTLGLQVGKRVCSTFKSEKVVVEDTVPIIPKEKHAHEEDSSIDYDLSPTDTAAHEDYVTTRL

Fatty acid synthase [2] = biological target: T2, Fatty acid synthase (Homo sapiens, UniProt P49327); assay: FAS thioesterase domain inhibitors, dose response, biochemical, kinetic fluorescence intensity (AID 624326); assay type: functional;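 also: rate of fluorescence rise from hydrolysis of a fluorogenic O-methyl fluorescein ester substrate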
Fatty acid synthase [3] = biological target: T2, Fatty acid synthase; assay: FAS thioesterase domain inhibitors, dose response, biochemical, endpoint fluorescence intensity, uHTS hits (AID 624327); assay type: functional;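 also: fluorescence from hydrolysis of an O-methyl fluorescein acyl ester substrate by the enzyme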
HEK293 [4] = assay: NOD1 signaling inhibitors, primary screen, cell-based, luminescence, uHTS (AID 1578); assay type: functional; details: Homo sapiens
HEK293 [5] = assay: NOD2 signaling inhibitors in MDP-stimulated cells, cell-based, uHTS, luminescence (AID 2001); assay type: functional; details: Homo sapiens
[6] = biological target: Nucleotide-binding oligomerization domain-containing protein 2 (Homo sapiens, UniProt Q9HC29); assay: NOD2 signaling inhibitors, cell-based, luminescence, uHTS, HEK293 (AID 1566); assay type: functional
HEK293 [7] = assay: cells; assay type: functional, cell-based; details: Homo sapiens
HEK293 [8] = assay: cells; assay type: functional, cell-based; details: Homo sapiens; remark: listed apart in the source
HEK293 [9] = assay: cells; assay type: functional, cell-based; details: Homo sapiens; remark: listed apart in the source
[10] = biological target: Induced myeloid leukemia cell differentiation protein Mcl-1 (Homo sapiens, UniProt Q07820); assay type: functional
Protein RecA = biological target: T3, Protein RecA (Mycobacterium tuberculosis, UniProt P9WHJ3); assay: Fluorescence Cell-Free Homogeneous Dose Retest to Identify Inhibitors of RecA-Intein Splicing Activity. [Related pubchem assays (depositor defined):AID2097, AID2223, AID489010, AID492950]; assay type: functional
T3 sequence (P9WHJ3 whole entry): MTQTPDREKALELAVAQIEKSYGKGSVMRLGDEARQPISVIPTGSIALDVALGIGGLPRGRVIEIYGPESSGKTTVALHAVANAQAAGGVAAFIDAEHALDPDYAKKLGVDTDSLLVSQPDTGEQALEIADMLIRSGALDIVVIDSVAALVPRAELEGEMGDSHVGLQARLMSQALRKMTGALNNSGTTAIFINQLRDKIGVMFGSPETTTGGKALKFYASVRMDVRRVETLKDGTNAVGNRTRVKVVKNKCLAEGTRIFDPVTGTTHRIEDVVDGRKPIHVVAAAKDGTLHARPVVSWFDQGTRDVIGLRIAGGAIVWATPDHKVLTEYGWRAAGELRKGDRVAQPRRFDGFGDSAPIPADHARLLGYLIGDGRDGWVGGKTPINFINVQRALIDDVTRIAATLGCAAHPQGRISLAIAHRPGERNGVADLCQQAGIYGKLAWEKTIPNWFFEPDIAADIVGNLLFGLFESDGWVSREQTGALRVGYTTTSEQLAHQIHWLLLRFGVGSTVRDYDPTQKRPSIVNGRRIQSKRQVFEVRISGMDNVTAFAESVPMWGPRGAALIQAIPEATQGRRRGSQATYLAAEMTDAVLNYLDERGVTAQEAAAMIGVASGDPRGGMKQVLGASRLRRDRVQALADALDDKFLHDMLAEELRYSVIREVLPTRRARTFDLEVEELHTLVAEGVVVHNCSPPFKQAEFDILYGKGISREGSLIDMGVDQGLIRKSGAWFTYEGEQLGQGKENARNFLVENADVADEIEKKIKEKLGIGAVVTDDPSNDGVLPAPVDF

[11] = C. albicans growth with fluconazole, confirmation, fluorescence, retest (AID 2467); assay type: functional, cell-based
[12] = NIH-3T3 fibroblast cytotoxicity, dose response, cytotoxicity control, cell-based, fluorescence, Alamar Blue, secondary assay (AID 2327); assay type: functional;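 also: NIH-3T3 mouse fibroblasts cultured with fluconazole at 8 µg/mL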
[13] = biological target: T4, Replicative DNA helicase DnaB (Mycobacterium tuberculosis, UniProt P9WMR3); assay: DnaB intein splicing inhibitors, dose response, biochemical, cell-free fluorescence (AID 449749); assay type: functional
T4 sequence (P9WMR3 whole entry): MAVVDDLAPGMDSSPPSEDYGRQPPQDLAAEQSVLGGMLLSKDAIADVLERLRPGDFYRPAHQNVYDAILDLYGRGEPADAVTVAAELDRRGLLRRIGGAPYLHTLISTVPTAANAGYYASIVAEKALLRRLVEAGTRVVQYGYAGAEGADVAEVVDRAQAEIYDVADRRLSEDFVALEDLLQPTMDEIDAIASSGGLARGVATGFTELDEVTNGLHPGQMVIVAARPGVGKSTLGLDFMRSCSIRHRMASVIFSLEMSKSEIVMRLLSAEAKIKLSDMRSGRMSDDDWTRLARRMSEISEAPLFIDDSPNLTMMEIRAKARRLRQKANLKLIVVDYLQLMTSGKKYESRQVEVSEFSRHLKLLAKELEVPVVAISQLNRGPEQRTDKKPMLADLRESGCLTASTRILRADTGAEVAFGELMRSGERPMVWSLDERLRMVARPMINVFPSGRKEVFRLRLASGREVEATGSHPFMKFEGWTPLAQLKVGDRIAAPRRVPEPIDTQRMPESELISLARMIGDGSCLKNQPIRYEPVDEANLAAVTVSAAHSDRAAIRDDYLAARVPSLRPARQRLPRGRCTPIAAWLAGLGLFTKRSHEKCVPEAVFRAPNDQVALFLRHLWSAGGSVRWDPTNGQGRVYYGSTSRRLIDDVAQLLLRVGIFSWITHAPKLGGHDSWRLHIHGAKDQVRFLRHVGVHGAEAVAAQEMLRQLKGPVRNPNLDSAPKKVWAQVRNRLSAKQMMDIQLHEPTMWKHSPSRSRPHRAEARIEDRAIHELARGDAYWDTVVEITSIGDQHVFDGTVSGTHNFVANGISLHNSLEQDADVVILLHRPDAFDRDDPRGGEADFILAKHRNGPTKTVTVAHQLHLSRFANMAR

[14] = biological target: T5, Voltage-gated N-type calcium channel alpha-1B subunit/Amyloid beta A4 precursor protein-binding family A member 1 (Homo sapiens, UniProt Q00975+Q02410); assay: disruptors of Mint-PDZ/N-type channel peptide interaction – biochemical, HTRF, SAR follow-up (AID 2489); assay type: functional
[15] = biological target: T5, Voltage-gated N-type calcium channel alpha-1B subunit/Amyloid beta A4 precursor protein-binding family A member 1; assay: disruptors of Mint-PDZ/N-type channel peptide interaction – biochemical, HTRF, set 2, SAR follow-up (AID 434980); assay type: functional
[16] = biological target: T5, Voltage-gated N-type calcium channel alpha-1B subunit/Amyloid beta A4 precursor protein-binding family A member 1; assay type: protein assay
[17] = biological target: T5, Voltage-gated N-type calcium channel alpha-1B subunit/Amyloid beta A4 precursor protein-binding family A member 1; assay type: protein assay; remark: listed apart in the source
[18] = biological target: DNA dC->dU-editing enzyme APOBEC-3G (Homo sapiens, UniProt Q9HC16); assay: Dose Response confirmation of small molecule APOBEC3G DNA Deaminase Inhibitors via a fluorescence-based single-stranded DNA deaminase assay. [Related pubchem assays (depositor defined):AID493012, AID493028]; assay type: functional
[19] = inhibitors of HIV Env-driven cell fusion, dose response, cherry-pick (AID 652057); assay type: functional, cell-based
[20] = biological target: Neurotensin receptor type 1 (Homo sapiens, UniProt P30989); assay type: functional;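 also: Image-based confirmatory dose-response assay measuring agonist activity at NTR1; NTR1-expressing U2OS osteosarcoma cells imaged for beta-arrestin GFP spot formation; agonist potency where compounds increase beta-arrestin recruitment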
[21] = inhibitors of clade B AD8 Env fusion, dose response, cell-based, cherry-pick (AID 652062); assay type: functional;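 also: luciferase signal from cell-cell fusion driven by HIV-1 clade B AD8 Env; potency is for inhibitors of fusion seen as a drop in luminescence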
[22] = CEM21 lymphoblast cell cytotoxicity, dose response, cytotoxicity control for viral fusion inhibitor project, CellTiter-Glo luminescence, cherry-picked (AID 652042); assay type: functional, cell-based;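 also: potency for signal decrease meaning cytotoxicity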
[23] = biological target: Eukaryotic translation initiation factor 4E (Mus musculus, UniProt P63073); assay: eIF4E–eIF4G protein interaction inhibitors, dose response, biochemical, TR-FRET (AID 855); assay type: functional;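 also: potency for disrupting eIF4E binding to eIF4GI seen as loss of FRET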
[24] = biological target: Peroxisome proliferator-activated receptor gamma/Nuclear receptor coactivator 2 (Homo sapiens, UniProt P37231); assay: (§1) TR-FRET dose response biochemical High Throughput Screening assay for agonists of the steroid receptor coactivator 2 (SRC-2) recruitment by the peroxisome proliferator-activated receptor gamma (PPAR gamma): non-selective agonists. [Related pubchem assays: 1297, 1032 ]; assay type: functional
[25] = biological target: Peroxisome proliferator-activated receptor gamma/Nuclear receptor coactivator 1 (Homo sapiens, UniProt P37231); assay: as §1, with “1 (SRC-1)” for “2 (SRC-2)”, “assays (depositor defined):AID1300, AID1808, AID504735, AID631]” for “assays: 1297, 1032 ]”; assay type: protein assay
[26] = biological target: Peroxisome proliferator-activated receptor gamma/Nuclear receptor coactivator 3 (Homo sapiens, UniProt P37231); assay: as §1, with “3 (SRC-3)” for “2 (SRC-2)”, “1301 (Confirmation screen.), 1048 (Primary screen.)]” for “1297, 1032 ]”; assay type: functional
SUMO E1/E2 = SUMO E1/E2 (Homo sapiens, UniProt P63279+Q9UBE0+Q9UBT2); assay: SAR analysis of SUMOylation using HTRF in an in-Vitro dose response assay. [Related pubchem assays (depositor defined):AID2006, AID2011, AID2018, AID2069, AID2658]; assay type: functional

Nucleotide-binding oligomerization domain-containing protein 2, sequence (Q9HC29 whole entry, the tested form may be a part): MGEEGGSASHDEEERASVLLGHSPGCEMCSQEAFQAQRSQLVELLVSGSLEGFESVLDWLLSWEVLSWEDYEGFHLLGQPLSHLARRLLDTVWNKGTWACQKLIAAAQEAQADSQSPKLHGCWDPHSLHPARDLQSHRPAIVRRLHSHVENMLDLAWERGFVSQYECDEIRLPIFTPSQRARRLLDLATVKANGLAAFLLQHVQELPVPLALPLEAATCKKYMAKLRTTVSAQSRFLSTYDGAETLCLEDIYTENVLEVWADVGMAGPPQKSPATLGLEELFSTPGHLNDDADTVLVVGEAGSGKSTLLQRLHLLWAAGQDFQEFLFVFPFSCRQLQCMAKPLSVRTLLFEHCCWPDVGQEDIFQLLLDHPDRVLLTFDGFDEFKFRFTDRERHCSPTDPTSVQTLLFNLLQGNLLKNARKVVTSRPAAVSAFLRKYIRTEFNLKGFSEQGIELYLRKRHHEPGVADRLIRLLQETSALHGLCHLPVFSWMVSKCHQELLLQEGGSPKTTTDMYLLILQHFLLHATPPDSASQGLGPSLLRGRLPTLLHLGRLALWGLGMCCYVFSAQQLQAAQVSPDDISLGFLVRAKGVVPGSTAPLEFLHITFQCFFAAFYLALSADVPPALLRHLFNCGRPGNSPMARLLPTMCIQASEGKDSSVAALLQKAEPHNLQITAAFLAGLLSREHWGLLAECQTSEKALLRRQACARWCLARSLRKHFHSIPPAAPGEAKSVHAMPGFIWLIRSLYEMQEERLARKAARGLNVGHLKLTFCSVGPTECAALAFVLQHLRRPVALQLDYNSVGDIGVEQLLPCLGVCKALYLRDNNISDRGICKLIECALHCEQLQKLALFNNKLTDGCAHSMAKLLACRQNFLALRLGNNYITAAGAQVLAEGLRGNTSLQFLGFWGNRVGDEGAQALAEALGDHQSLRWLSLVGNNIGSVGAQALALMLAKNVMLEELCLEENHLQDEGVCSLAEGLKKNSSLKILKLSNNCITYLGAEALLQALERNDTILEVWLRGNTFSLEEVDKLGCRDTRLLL
T5 sequence (Q00975 whole entry): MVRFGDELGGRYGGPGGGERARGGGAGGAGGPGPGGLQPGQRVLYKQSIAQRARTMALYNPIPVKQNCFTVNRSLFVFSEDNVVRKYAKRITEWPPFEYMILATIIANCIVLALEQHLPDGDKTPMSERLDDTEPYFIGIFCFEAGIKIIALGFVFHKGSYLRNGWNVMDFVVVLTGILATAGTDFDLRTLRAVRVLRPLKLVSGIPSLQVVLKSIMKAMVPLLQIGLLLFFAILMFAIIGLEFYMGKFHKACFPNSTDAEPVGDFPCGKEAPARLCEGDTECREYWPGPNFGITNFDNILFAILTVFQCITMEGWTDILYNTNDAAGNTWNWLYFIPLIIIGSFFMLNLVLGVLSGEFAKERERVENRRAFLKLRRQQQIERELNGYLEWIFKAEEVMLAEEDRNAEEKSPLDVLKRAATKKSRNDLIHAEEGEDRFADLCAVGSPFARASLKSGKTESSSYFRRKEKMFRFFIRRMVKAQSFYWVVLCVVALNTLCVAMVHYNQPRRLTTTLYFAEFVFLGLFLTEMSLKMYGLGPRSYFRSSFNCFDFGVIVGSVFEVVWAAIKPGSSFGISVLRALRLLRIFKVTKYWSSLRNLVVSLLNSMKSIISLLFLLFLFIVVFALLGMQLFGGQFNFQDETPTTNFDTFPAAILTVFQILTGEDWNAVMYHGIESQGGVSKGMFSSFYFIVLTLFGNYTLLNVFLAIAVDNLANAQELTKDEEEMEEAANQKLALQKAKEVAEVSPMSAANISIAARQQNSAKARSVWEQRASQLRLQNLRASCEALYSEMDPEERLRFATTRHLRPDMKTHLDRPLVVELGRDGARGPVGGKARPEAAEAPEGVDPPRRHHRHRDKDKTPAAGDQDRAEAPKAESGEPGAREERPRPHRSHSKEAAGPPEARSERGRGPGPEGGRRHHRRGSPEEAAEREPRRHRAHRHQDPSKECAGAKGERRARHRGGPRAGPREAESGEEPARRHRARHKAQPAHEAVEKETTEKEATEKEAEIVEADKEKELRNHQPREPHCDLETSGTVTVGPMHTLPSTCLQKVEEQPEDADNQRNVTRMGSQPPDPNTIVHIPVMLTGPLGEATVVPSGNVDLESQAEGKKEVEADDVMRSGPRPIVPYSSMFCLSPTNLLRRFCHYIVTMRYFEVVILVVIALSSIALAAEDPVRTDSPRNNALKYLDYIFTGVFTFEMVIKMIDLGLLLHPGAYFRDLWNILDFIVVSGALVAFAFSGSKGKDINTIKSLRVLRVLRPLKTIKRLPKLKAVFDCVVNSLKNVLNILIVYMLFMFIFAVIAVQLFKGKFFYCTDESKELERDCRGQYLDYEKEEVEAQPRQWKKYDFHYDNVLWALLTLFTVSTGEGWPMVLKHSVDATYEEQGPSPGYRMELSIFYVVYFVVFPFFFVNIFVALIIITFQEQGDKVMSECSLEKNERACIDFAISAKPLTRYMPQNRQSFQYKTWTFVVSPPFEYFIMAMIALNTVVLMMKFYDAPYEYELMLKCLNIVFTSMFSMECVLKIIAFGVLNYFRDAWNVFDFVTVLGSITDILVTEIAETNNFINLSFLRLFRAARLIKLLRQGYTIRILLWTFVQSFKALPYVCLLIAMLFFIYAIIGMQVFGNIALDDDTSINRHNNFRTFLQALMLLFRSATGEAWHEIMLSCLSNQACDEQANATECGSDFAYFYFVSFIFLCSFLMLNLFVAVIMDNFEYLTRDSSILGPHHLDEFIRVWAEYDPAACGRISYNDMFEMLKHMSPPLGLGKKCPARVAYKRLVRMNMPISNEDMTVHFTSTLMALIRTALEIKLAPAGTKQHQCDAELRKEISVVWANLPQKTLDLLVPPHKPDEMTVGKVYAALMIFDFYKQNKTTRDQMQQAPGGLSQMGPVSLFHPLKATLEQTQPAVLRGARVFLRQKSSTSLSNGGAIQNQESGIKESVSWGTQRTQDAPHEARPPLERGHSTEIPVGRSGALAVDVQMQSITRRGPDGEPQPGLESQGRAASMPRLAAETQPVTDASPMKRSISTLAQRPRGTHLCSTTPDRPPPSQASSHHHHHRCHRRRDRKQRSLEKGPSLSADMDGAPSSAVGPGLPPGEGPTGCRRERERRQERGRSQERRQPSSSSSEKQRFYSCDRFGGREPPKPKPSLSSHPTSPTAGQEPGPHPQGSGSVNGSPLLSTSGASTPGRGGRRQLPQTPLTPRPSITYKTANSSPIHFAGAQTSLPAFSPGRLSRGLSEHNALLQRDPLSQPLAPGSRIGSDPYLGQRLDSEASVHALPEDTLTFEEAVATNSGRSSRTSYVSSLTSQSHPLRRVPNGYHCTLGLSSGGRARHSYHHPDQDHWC
T5 sequence (Q02410 whole entry): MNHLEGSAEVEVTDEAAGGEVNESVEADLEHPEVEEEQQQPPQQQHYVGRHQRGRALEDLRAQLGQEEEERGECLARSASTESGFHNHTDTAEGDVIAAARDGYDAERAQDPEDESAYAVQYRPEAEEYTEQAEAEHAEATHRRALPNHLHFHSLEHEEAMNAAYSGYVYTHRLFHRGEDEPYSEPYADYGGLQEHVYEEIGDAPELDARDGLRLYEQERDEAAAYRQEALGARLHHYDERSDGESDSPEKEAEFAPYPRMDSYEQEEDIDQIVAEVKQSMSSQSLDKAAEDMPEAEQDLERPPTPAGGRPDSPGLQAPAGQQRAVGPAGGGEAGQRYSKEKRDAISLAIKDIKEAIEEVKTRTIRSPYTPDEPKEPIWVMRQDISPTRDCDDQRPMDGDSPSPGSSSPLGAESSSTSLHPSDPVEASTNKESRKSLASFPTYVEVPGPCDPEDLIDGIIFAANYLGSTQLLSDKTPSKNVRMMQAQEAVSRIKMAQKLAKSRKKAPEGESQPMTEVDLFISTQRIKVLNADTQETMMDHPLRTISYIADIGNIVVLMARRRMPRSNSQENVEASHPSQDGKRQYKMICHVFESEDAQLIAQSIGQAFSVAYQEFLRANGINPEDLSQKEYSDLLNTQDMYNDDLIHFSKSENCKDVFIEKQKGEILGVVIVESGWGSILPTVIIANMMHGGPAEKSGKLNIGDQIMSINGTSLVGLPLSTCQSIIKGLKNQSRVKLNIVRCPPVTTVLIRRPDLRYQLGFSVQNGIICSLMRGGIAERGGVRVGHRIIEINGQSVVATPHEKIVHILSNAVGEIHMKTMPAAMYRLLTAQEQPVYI
Neurotensin receptor type 1, sequence (P30989 whole entry, the tested form may be a part): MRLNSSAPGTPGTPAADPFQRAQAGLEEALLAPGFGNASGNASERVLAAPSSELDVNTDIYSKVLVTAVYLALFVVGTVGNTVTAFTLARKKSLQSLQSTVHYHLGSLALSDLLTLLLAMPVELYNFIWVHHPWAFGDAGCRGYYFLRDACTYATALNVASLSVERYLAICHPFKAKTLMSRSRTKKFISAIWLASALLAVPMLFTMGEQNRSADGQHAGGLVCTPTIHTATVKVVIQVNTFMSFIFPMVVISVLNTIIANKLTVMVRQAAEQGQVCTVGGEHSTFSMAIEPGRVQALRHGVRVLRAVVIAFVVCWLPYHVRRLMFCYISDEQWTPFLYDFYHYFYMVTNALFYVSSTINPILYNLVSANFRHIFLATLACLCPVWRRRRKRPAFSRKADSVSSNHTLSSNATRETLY
DNA dC->dU-editing enzyme APOBEC-3G, sequence (Q9HC16 whole entry, the tested form may be a part): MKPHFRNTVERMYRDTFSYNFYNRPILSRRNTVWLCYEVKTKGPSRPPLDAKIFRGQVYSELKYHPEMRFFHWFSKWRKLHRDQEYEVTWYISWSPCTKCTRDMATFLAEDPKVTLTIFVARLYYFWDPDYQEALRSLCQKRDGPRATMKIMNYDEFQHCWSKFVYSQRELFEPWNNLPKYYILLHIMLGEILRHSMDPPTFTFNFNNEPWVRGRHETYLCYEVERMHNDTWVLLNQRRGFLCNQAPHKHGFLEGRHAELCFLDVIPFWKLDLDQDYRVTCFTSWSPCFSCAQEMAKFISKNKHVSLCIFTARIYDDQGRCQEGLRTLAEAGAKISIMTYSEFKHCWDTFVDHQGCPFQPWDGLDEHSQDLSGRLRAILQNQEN

SMILES | EC50 [1] | EC50 (HEK293 [4]) | IC50 (HEK293 [5]) | EC50 [6] | IC50 (HEK293 [7]) | IC50 (HEK293 [8]) | IC50 (HEK293 [9]) | further results
O=c1c2ccccc2nc(SCc2ccc([N+](=O)[O-])cc2)n1CCCO | 0.376 µM (active) |  |  |  |  |  |  | IC50 (Fatty acid synthase [2]): 5.59 µM (active); IC50 (Fatty acid synthase [3]): 10.2 µM (active)
COc1ccc(C(Nc2ccccn2)c2c(NC(=O)c3ccco3)sc(C)c2C)cc1OC (configuration not stated) | 1.19 µM (active) |  |  |  |  |  |  | 
CC1CCc2nc(NC(=O)CSc3nc4ccccc4o3)sc2C1 (configuration not stated) |  | 5.78 µM (active) | 5.28 µM (active) | > 20 µM (inactive) | 3.36 µM (active) | > 20 µM (inactive) | 15.4 µM (active) | 
CCCc1ccc(/C=C2\C(=O)c3ccccc3C(O)=C2C(=O)OCC)cc1 |  |  |  |  |  |  |  | IC50 [10]: 2.32 µM (not active); EC50 (Protein RecA): 8.95 µM (active); EC50 [11]: > 38 µM (not active); EC50 [12]: 56.4 µM (inconclusive); AC50 [13]: 5.54 µM (active); IC50 [14]: 7.19 µM (active); IC50 [15]: 5.7 µM (active); IC50 [16]: 9.62 µM (active); IC50 [17]: 5.12 µM (active)
O=S(=O)(Cc1ccccc1)N=Nc1c(O)[nH]c2ccc(Br)cc12 |  |  |  |  |  |  |  | IC50 [18]: 44.3 µM (active)
CCc1nc2ccccc2c(C(=O)OCC(=O)Nc2cccc(S(=O)(=O)N3CCOCC3)c2)c1C |  | 5.64 µM (active) | 5.81 µM (inactive) | 12.8 µM (active) | 4.01 µM (active) | > 20 µM (inactive) | 9.75 µM (active) | AC50 [19]: 44.6 µM (active); EC50 [20]: 10.2 µM (active); AC50 [21]: 13.9 µM (active); AC50 [22]: 31.5 µM (active)
O=C(Nc1cccnc1)c1cc2c(ccc3ccccc32)o1 |  |  |  |  |  |  |  | IC50 [23]: > 64 µM (inactive)
O=C(CSc1ncnc2c1oc1ccccc12)N1CCCc2ccccc21 |  | 5.08 µM (active) | 5.25 µM (inactive) | 11.9 µM (active) | 4.86 µM (active) | > 20 µM (inactive) | 9.45 µM (active) | EC50 [24]: 85.1 µM (not active); EC50 [25]: > 79.4 µM (inactive); EC50 [26]: > 79.4 µM (not active)
Nc1cc(=O)nc(SCC(=O)N2CCN(c3ccccc3)CC2)n1-c1ccc(F)cc1 | 6.68 µM (active) |  |  |  |  |  |  | 
Nc1ccc2c(c1)C1C=CCC1C(c1ccccc1)N2 (configuration not stated) |  |  |  |  |  |  |  | IC50 (SUMO E1/E2): > 100 µM (inactive)
